Experimental data: PubChem BioAssay AID330 (DTP/NCI, 2004)
Several values for one entry are separate records, joined by “and”; a condition that tells them apart may be missing. Identical values can stand only once. Toxic doses and inconclusive results are not listed.

Tested on: P388 leukemia ip, CD2F1 mice, survival T/C
Experiment: NCI In Vivo Anticancer Drug Screen. Data for tumor model P388 Leukemia (intraperitoneal) in CD2F1 (CDF1) mice
Conditions: endpoint: median survival time, higher = longer survival
In short: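 Mice carrying the transplanted tumor received test compound or vehicle. Survival was recorded in each group, and the value is the treated-group measurement divided by that of the vehicle-treated control group.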

[1] = dose: 100.0 mg/kg/injection, schedule: Q04DX003 (ip), vehicle: saline with Tween-80
[2] = dose: 200.0 mg/kg/injection, schedule: Q04DX003 (ip), vehicle: saline with Tween-80
[3] = dose: 400.0 mg/kg/injection, schedule: Q04DX003 (ip), vehicle: saline with Tween-80
[4] = dose: 60.0 mg/kg/injection, schedule: Q01DX005 (ip), vehicle: saline with Tween-80
[5] = dose: 120.0 mg/kg/injection, schedule: Q01DX005 (ip), vehicle: saline with Tween-80
[6] = dose: 240.0 mg/kg/injection, schedule: Q01DX005 (ip), vehicle: saline with Tween-80
[7] = dose: 12.5 mg/kg/injection, schedule: Q01DX005 (ip), vehicle: Klucel (hydroxypropylcellulose) (HPC)
[8] = dose: 25.0 mg/kg/injection, schedule: Q01DX005 (ip), vehicle: Klucel (hydroxypropylcellulose) (HPC)
[9] = dose: 50.0 mg/kg/injection, schedule: Q01DX005 (ip), vehicle: Klucel (hydroxypropylcellulose) (HPC)
[10] = dose: 60.0 mg/kg/injection, schedule: Q01DX005 (ip), vehicle: Klucel (hydroxypropylcellulose) (HPC)
[11] = dose: 120.0 mg/kg/injection, schedule: Q01DX005 (ip), vehicle: Klucel (hydroxypropylcellulose) (HPC)
[12] = dose: 240.0 mg/kg/injection, schedule: Q01DX005 (ip), vehicle: Klucel (hydroxypropylcellulose) (HPC)
[13] = dose: 100.0 mg/kg/injection, schedule: Q04DX003 (ip), vehicle: saline
[14] = dose: 200.0 mg/kg/injection, schedule: Q04DX003 (ip), vehicle: saline
[15] = dose: 100.0 mg/kg/injection, schedule: Q04DX003 (ip), vehicle: Klucel (hydroxypropylcellulose) (HPC)
[16] = dose: 200.0 mg/kg/injection, schedule: Q04DX003 (ip), vehicle: Klucel (hydroxypropylcellulose) (HPC)
[17] = dose: 400.0 mg/kg/injection, schedule: Q04DX003 (ip), vehicle: Klucel (hydroxypropylcellulose) (HPC)

## CC(=O)c1cc(CN(C)C)c(O)c(CN(C)C)c1
dose: 50.0 mg/kg/injection, schedule: Q01DX005 (ip), vehicle: saline
  T/C: 101 % of control
dose: 100.0 mg/kg/injection, schedule: Q01DX005 (ip), vehicle: saline
  T/C: 99 % of control
dose: 200.0 mg/kg/injection, schedule: Q01DX005 (ip), vehicle: saline
  T/C: 99 % of control

## CCOC(=O)[C@]12CCC[C@@]1(O)NC(=O)c1cnccc12
[1]
  T/C: 100 % of control
[2]
  T/C: 97 % of control
[3]
  T/C: 93 % of control

## CCCCC(=O)c1c(O)c2ccccc2oc1=O
dose: 15.0 mg/kg/injection, schedule: Q01DX005 (ip), vehicle: saline with Tween-80
  T/C: 100 % of control
dose: 30.0 mg/kg/injection, schedule: Q01DX005 (ip), vehicle: saline with Tween-80
  T/C: 97 % of control
[4]
  T/C: 116 % of control and 94 % of control

## COc1cc(C2c3cc4c(cc3OC(OC(C)=O)C2C)OCO4)cc(OC)c1OC (stereo not given)
[4]
  T/C: 96 % of control
[5]
  T/C: 94 % of control
[6]
  T/C: 105 % of control

## CCOC(=O)Nc1nn(-c2ccccn2)c(=O)[nH]1
dose: 50.0 mg/kg/injection, schedule: Q01DX005 (ip), vehicle: distilled water + alcohol
  T/C: 107 % of control
dose: 100.0 mg/kg/injection, schedule: Q01DX005 (ip), vehicle: distilled water + alcohol
  T/C: 101 % of control
dose: 200.0 mg/kg/injection, schedule: Q01DX005 (ip), vehicle: distilled water + alcohol
  T/C: 99 % of control

## C/C(=N\N=C(N)N)c1ccc2c(c1)Cc1ccccc1-2
dose: 25.0 mg/kg/injection, schedule: Q04DX002 (ip), vehicle: saline with Tween-80
  T/C: 101 % of control
dose: 50.0 mg/kg/injection, schedule: Q04DX002 (ip), vehicle: saline with Tween-80
  T/C: 103 % of control

## N/C(=N\[N+](=O)[O-])N1CCCCCC1
[7]
  T/C: 106 % of control
[8]
  T/C: 100 % of control
[9]
  T/C: 107 % of control

## O=C(NC(=O)C(F)(F)C(F)(F)F)Nc1cccc(F)c1
dose: 100.0 mg/kg/injection, schedule: Q01DX009 (ip), vehicle: Klucel (hydroxypropylcellulose) (HPC)
  T/C: 106 % of control
dose: 200.0 mg/kg/injection, schedule: Q01DX009 (ip), vehicle: Klucel (hydroxypropylcellulose) (HPC)
  T/C: 100 % of control

## COC(=O)CCSC(=O)NS(=O)(=O)c1ccc(C)cc1
[9]
  T/C: 104 % of control
dose: 100.0 mg/kg/injection, schedule: Q01DX005 (ip), vehicle: Klucel (hydroxypropylcellulose) (HPC)
  T/C: 102 % of control
dose: 200.0 mg/kg/injection, schedule: Q01DX005 (ip), vehicle: Klucel (hydroxypropylcellulose) (HPC)
  T/C: 104 % of control

## CCOC(=O)CS(=O)(=O)CCS(=O)(=O)CC(=O)OCC
dose: 50.0 mg/kg/injection, schedule: Q01DX009 (ip), vehicle: saline
  T/C: 95 % of control
dose: 100.0 mg/kg/injection, schedule: Q01DX009 (ip), vehicle: saline
  T/C: 97 % of control
dose: 200.0 mg/kg/injection, schedule: Q01DX009 (ip), vehicle: saline
  T/C: 102 % of control

## Cc1ccc(NC(=O)N(CCCl)N=O)cc1NC(=O)N(CCCl)N=O
dose: 0.1 mg/kg/injection, schedule: Q01DX009 (ip), vehicle: other
  T/C: 120 % of control
dose: 0.1 mg/kg/injection, schedule: Q01DX009 (ip), vehicle: saline + alcohol
  T/C: 116 % of control
dose: 0.25 mg/kg/injection, schedule: Q04DX003 (ip), vehicle: other
  T/C: 113 % of control
dose: 0.5 mg/kg/injection, schedule: Q04DX003 (ip), vehicle: other
  T/C: 118 % of control
dose: 0.75 mg/kg/injection, schedule: Q01DX009 (ip), vehicle: other
  T/C: 161 % of control
dose: 1.0 mg/kg/injection, schedule: Q01DX009 (ip), vehicle: other
  T/C: 159 % of control
dose: 1.0 mg/kg/injection, schedule: Q04DX003 (ip), vehicle: other
  T/C: 113 % of control
dose: 1.32 mg/kg/injection, schedule: Q01DX009 (ip), vehicle: saline with Tween-80
  T/C: 154 % of control
dose: 1.5 mg/kg/injection, schedule: Q01DX009 (ip), vehicle: other
  T/C: 175 % of control
dose: 2.0 mg/kg/injection, schedule: Q01DX009 (ip), vehicle: saline with Tween-80
  T/C: 181 % of control
dose: 2.0 mg/kg/injection, schedule: Q04DX003 (ip), vehicle: other
  T/C: 154 % of control
dose: 3.0 mg/kg/injection, schedule: Q01DX009 (ip), vehicle: other
  T/C: 221 % of control
dose: 3.0 mg/kg/injection, schedule: Q01DX009 (ip), vehicle: saline with Tween-80
  T/C: 155 % of control and 209 % of control
dose: 3.13 mg/kg/injection, schedule: Q01DX009 (ip), vehicle: other
  T/C: 177 % of control
dose: 4.5 mg/kg/injection, schedule: Q01DX009 (ip), vehicle: saline with Tween-80
  T/C: 245 % of control
dose: 6.25 mg/kg/injection, schedule: Q01DX009 (ip), vehicle: other
  T/C: 209 % of control
dose: 12.5 mg/kg/injection, schedule: Q01DX009 (ip), vehicle: other
  T/C: 222 % of control

## COc1ccc2ccccc2c1/C=[N+](/[O-])c1ccccc1
[10]
  T/C: 109 % of control
[11]
  T/C: 110 % of control
[12]
  T/C: 112 % of control

## CCOC(=O)N1CCNCC1
[13]
  T/C: 108 % of control
[14]
  T/C: 108 % of control

## COC1/C=C/OC2(C)Oc3c(C)c(O)c4c(O)c(c(C5SCCS5)c(O)c4c3C2=O)NC(=O)/C(C)=C\C=C\C(C)C(O)C(C)C(O)C(C)C(O)C1C (stereo not given)
dose: 50.0 mg/kg/injection, schedule: Q01DX009 (ip), vehicle: saline with Tween-80
  T/C: 97 % of control
dose: 100.0 mg/kg/injection, schedule: Q01DX009 (ip), vehicle: saline with Tween-80
  T/C: 102 % of control
dose: 200.0 mg/kg/injection, schedule: Q01DX009 (ip), vehicle: saline with Tween-80
  T/C: 96 % of control

## COC(=O)Nc1nc2ccc(CCC(=O)c3c(C)oc(C)c3-c3ccc(NC(C)=O)cc3)cc2[nH]1
[4]
  T/C: 99 % of control
[5]
  T/C: 99 % of control

## COC(=O)N1CC2[C@H](O)[C@H](O)C1ON2c1ccccc1 (stereo not given in full)
[10]
  T/C: 101 % of control
[11]
  T/C: 94 % of control
[12]
  T/C: 93 % of control

## Nc1ccc2oc3cccnc3c2c1
[13]
  T/C: 104 % of control
[14]
  T/C: 111 % of control
dose: 400.0 mg/kg/injection, schedule: Q04DX003 (ip), vehicle: saline
  T/C: 102 % of control

## CC(C)C1=CC2=CCC3C(C)(C(N)=O)CCCC3(C)C2CC1CC#N (stereo not given)
[1]
  T/C: 95 % of control
[2]
  T/C: 91 % of control
[3]
  T/C: 91 % of control

## O=C(N=c1sc2ccccc2s1)N=c1sc2ccccc2s1
dose: 30.0 mg/kg/injection, schedule: Q01DX005 (ip), vehicle: Klucel (hydroxypropylcellulose) (HPC)
  T/C: 99 % of control
[10]
  T/C: 86 % of control and 91 % of control
[11]
  T/C: 95 % of control

## O=C(O)C1=C(C(=O)O)C2c3ccccc3C1c1ccccc12
dose: 50.0 mg/kg/injection, schedule: Q01DX005 (ip), vehicle: saline with Tween-80
  T/C: 99 % of control
dose: 100.0 mg/kg/injection, schedule: Q01DX005 (ip), vehicle: saline with Tween-80
  T/C: 90 % of control
dose: 200.0 mg/kg/injection, schedule: Q01DX005 (ip), vehicle: saline with Tween-80
  T/C: 103 % of control

## Clc1ccc(CN2COc3c(cc(Cl)c4cccnc34)C2)cc1
[15]
  T/C: 88 % of control
[16]
  T/C: 91 % of control
[17]
  T/C: 106 % of control

## COc1cc2cnc(-c3ccccc3)cc2cc1OC
dose: 100.0 mg/kg/injection, schedule: Q04DX003 (ip), vehicle: suspension in saline
  T/C: 101 % of control
dose: 200.0 mg/kg/injection, schedule: Q04DX003 (ip), vehicle: suspension in saline
  T/C: 93 % of control
dose: 400.0 mg/kg/injection, schedule: Q04DX003 (ip), vehicle: suspension in saline
  T/C: 93 % of control

## Cc1ccc(N2CC3CC4(C)C=CC3(C2)O4)cc1 (stereo not given)
[4]
  T/C: 103 % of control
[5]
  T/C: 111 % of control
[6]
  T/C: 98 % of control

## CS/C(=C1/C(=O)N(c2ccccc2)N=C1c1ccc(C)cc1)N1CC1
[15]
  T/C: 91 % of control
[16]
  T/C: 94 % of control
[17]
  T/C: 94 % of control

## CC1(C)COC(=O)C(C#N)=C1CBr
[7]
  T/C: 105 % of control
[8]
  T/C: 105 % of control
[9]
  T/C: 99 % of control and 116 % of control
